Experimental data taken from PMC11788587, “Validating Low‐Dose Iohexol as a Marker for Glomerular Filtration Rate by In Vitro and In Vivo Studies” (Clinical and Translational Science, 2025).
Where two headings read alike, the source gives them in different places.

What was measured:
hOCT1 = molecular target: T1, hOCT1 (Homo sapiens, UniProt O15245); assay: Substrate assessment: iohexol uptake in 293 cells expressing hOCT1 vs control; format: in vitro ADME; conditions: 10 μM iohexol, median (95% CI)
T1 construct: expressed in transfected cells; host or cells: HEK-293 (293) cells, pEBTetD plasmid, doxycycline-induced
T1 sequence (O15245 1-554): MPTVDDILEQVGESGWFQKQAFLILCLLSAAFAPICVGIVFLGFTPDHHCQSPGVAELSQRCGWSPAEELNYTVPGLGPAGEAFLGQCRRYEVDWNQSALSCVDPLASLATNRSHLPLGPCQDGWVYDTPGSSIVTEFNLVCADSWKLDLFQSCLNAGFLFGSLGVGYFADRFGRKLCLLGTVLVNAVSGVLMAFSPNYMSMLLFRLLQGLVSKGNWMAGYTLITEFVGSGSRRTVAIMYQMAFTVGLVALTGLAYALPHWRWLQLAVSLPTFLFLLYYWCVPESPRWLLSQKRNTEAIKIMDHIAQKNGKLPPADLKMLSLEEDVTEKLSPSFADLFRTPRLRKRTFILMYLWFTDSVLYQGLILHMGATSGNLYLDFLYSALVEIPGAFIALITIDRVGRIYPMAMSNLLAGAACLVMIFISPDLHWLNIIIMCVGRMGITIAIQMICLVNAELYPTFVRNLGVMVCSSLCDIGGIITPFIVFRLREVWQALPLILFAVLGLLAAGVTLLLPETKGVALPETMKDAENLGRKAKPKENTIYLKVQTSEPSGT
Source text: (§1) We characterized the inhibitory potential of iohexol on major drug transporters recommended by regulatory agencies, which were previously assessed in a clinical transporter phenotyping cocktail study. These transporters include hOAT1, hOAT3, hOCT1, hOCT2, hMATE1, hMATE2K, human organic anion transporter polypeptides (hOATP)1B1, hOATP1B3, and human multidrug resistance protein (hMDR)1. Additionally, we investigated whether iohexol is a substrate for any of the renal transporters among these, including hOAT1/3, hOCT1/2, and hMATE1/2K. Cell‐based uptake assays were used to assess the activities of hOAT1/3, hOCT1/2, hMATE1/2K, and hOATP1B1/1B3. Inside‐out membrane vesicle uptake assays were used to evaluate the activity of hMDR1.
(§2) For substrate assessments, iohexol was incubated with stably transfected HEK‐293 cells expressing one of the following transporters: hOAT1, hOAT3, hOCT1, hOCT2, hMATE1, or hMATE2K, as well as with control cells lacking transporter expression. Stably transfected cell lines containing pEBTetD plasmids with wild‐type human transporter cDNAs were generated as previously described. Transporter expression was induced by adding 1 μg/mL doxycycline to the growth medium for at least 20 h. Iohexol would be considered a substrate for these transporters if: (1) the ratio of iohexol uptake in cells expressing the transporter to that in control cells was ≥ 2, and (2) a known inhibitor of the transporter reduced iohexol uptake to ≤ 50% at concentrations ≥ 10 times its inhibition constant or half‐maximal inhibitory concentration.
(§3) Uptake assays were performed using stably transfected 293 cells, with or without the expression of one of the following transporters: hOAT1, hOAT3, hOCT1, hOCT2, hMATE1, or hMATE2K, as previously described.^1
(§4) For the substrate assessment, cells were incubated with 10 µM iohexol for 10 minutes and 30 minutes for each transporter. Inhibition assays were performed using specific standard substrates for each transporter: 10 µM para-aminohippuric acid (PAH) for hOAT1, 3 µM estrone-3-sulfate (E3S) for hOAT3, 50 µM metformin for hOCT1, 5 µM metformin for hOCT2, and 3 µM 1-methyl-4-phenylpyridinium (MPP+) for hMATE1 and hMATE2K. […]
(§5) R version 4.2.1 (R Foundation for Statistical Computing, Vienna, Austria) was used for statistical evaluations and data visualization. The data analysis approach for the in vitro study was detailed by Hsin CH et al..^1 In brief, for transport assays, the initial uptake rate was calculated by normalizing the substrate concentration to both the protein concentration and the incubation time for each dish or well. The transporter-mediated uptake rate (net uptake) was determined by performing an element-wise subtraction of uptake rates from different conditions. […]

[1] = system: rat‐isolated perfused kidney; set-up: method as in ref 14 Masereeuw et al.; conditions: mean ± standard deviation, ref 14 Masereeuw et al., cited from earlier work
hMATE1 = molecular target: T2, hMATE1 (Homo sapiens, UniProt Q96FL8); assay: Substrate assessment: iohexol uptake in 293 cells expressing hMATE1 vs control; format: in vitro ADME; conditions: 10 μM iohexol, median (95% CI)
T2 construct: expressed in transfected cells; host or cells: HEK-293 (293) cells, pEBTetD plasmid, doxycycline-induced
T2 sequence (Q96FL8 1-570): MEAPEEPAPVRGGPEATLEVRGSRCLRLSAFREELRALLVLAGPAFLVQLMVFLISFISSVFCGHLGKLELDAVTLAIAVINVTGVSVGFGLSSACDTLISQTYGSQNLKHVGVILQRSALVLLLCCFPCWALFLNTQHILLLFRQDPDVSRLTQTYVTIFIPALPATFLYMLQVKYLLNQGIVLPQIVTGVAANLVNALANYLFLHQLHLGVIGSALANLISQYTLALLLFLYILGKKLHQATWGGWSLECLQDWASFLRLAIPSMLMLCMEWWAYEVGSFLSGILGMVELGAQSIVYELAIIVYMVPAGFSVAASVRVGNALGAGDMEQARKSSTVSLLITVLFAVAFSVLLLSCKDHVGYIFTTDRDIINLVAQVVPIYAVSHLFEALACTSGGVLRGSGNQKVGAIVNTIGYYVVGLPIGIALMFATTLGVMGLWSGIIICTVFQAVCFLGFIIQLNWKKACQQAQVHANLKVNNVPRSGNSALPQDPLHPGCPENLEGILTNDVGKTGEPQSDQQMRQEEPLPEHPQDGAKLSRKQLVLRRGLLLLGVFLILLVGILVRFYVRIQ
Source text: as §1, §2, §3, §4, §5

[2] = cited from earlier work

In the case of `CC(=O)N(CC(O)CO)c1c(I)c(C(=O)NCC(O)CO)c(I)c(C(=O)NCC(O)CO)c1I` (stereo not shown) [iohexol], the “Differences in intracellular accumulation (expression on minus off)” value (shortened to “Differences … (expression on minus off)”) (hOCT1; 10 minutes) is reported as 0.16 (-1.8 to 0.79) pmol/mg protein, the “Uptake ratio (transporter-expressing vs non-expressing cells)” value (hOCT1; 10 minutes) is reported as 1 (0.84 to 1.1) and the “Differences … (expression on minus off)” value (hOCT1; 30 minutes) is reported as -0.51 (-1.1 to -0.15) pmol/mg protein. For the same compound, the “Uptake ratio (transporter-expressing vs non-expressing cells)” value (hOCT1; 30 minutes) was 0.89 (0.79 to 0.97), the “Ratio of renal clearance to GFR” value ([1]; perfusate concentration 5 μg/mL) was 0.63 ± 0.06 and the “Ratio of renal clearance to GFR” value ([1]; perfusate concentration 20 μg/mL) was 1.02 ± 0.06. The “Differences … (expression on minus off)” value (hMATE1; 10 minutes) was 0.36 (-1.2 to 1.7) pmol/mg protein, the “Uptake ratio (transporter-expressing vs non-expressing cells)” value (hMATE1; 10 minutes) was 1.1 (0.84 to 1.2) and the “Differences … (expression on minus off)” value (hMATE1; 30 minutes) was -0.67 (-1.6 to 0.61) pmol/mg protein. The “Uptake ratio (transporter-expressing vs non-expressing cells)” value (hMATE1; 30 minutes) was 0.92 (0.78 to 1.1), the Iohexol clearance ([2]; healthy adults, 95% CI 7.08–7.68 L/h, ref 44 Olsson et al.) was 7.32 L/h and the Median renal clearance ([2]; healthy adults, interquartile range 6.36–7.50, ref 39 Sterner et al.) was 6.78 L/h/1.73 m^2. The Volume of distribution ([2]; healthy volunteers) was 0.27 L/kg.
